The subject of test [1] is MCF7. Nature of the test: Cytotoxicity against human MCF7 cells assessed as inhibition of cell growth. The format is functional, cell-based.
For test [2], the system named is HepG2. Description: Cytotoxicity against human HepG2 cells assessed as inhibition of cell growth. The test is classed as functional, cell-based.
In test [3] the test system is A549. Nature of the test: cells. To be noted: Homo sapiens.
Description: Cytotoxicity against human A549 cells assessed as inhibition of cell growth
The test system of test [4] is HT-29. Nature of the test: Cytotoxicity against human HT-29 cells assessed as inhibition of cell growth. The test is classed as functional, cell-based.
Test [5] relates to HeLa. Description: Cytotoxicity against human HeLa cells assessed as inhibition of cell growth. The test is classed as functional, cell-based.
For test [6], the system named is MDA-MB-231. Nature of the test: Cytotoxicity against human MDA-MB-231 cells assessed as inhibition of cell growth. The test is classed as functional, cell-based.
In test [7] the test system is RKO. Nature of the test: Cytotoxicity against human RKO cells assessed as inhibition of cell growth. The format is functional, cell-based.
Test [8] relates to HCT-116. Description: Cytotoxicity against human HCT-116 cells assessed as inhibition of cell growth. The format is functional, cell-based.
Test [9] can be described thus: Cytotoxicity against human Neural progenitor cells assessed as cell growth inhibition. The test is classed as functional, cell-based.
In test [10] the test system is SH-SY5Y. Description: Cytotoxicity against human SH-SY5Y cells assessed as cell growth inhibition. The test is classed as functional, cell-based.
Test [11] has as its system NCI-H460. Nature of the test: Cytotoxicity against human NCI-H460 cells assessed as cell growth inhibition. The format is functional, cell-based.
Test [12] concerns MKN-45. Description: Cytotoxicity against human MKN-45 cells assessed as cell growth inhibition. The format is functional, cell-based.
For test [13], the system named is PA-1. Description: Cytotoxicity against human PA-1 cells assessed as inhibition of cell growth. The format is functional, cell-based.
For test [14], the system named is B16-F10. Nature of the test: Cytotoxicity against mouse B16-F10 cells assessed as cell growth inhibition. The test is classed as functional, cell-based.
The subject of test [15] is KB. Description: Cytotoxicity against human KB cells assessed as cell growth inhibition. The test is classed as functional, cell-based.
The test system of test [16] is Ishikawa. Description: Cytotoxicity against human Ishikawa cells assessed as inhibition of cell growth. The test is classed as functional, cell-based.
For test [17], the system named is PC-3. Nature of the test: Cytotoxicity against human PC-3 cells assessed as inhibition of cell growth. The test is classed as functional, cell-based.
A short description of test [18]: Cytotoxicity against human CL1-5 cells assessed as inhibition of cell growth. The test is classed as functional, cell-based.
For test [19], the system named is AGS. Nature of the test: Cytotoxicity against human AGS cells assessed as inhibition of cell growth. The test is classed as functional, cell-based.
Test [20] concerns NCI/ADR-RES. Nature of the test: Cytotoxicity against human NCI-ADR-RES cells assessed as inhibition of cell growth. The test is classed as functional, cell-based.
Test [21] is described as follows: Cytotoxicity against human SCC-29B cells assessed as inhibition of cell growth. The test is classed as functional.
A short description of test [22]: Cytotoxicity against human […] cells assessed as inhibition of cell growth. The format is functional, cell-based.

Turning to `COc1cc(/C=C/c2ncc([N+](=O)[O-])n2CCOC(=O)c2c[nH]c3ccccc23)cc(OC)c1OC`, the IC50 in test [1] is 30 nM; in test [2], 40 nM; in test [3], 35 nM.
Take `COC(=O)c1c(Nc2cc(OC)c(OC)c(OC)c2)c2ccc(OC)cc2n1C`: the IC50 in test [1], in [4] and in [5] was 110 nM each time.
For the compound `Oc1cccc(-n2cc(CSc3c[nH]c4ccccc34)nn2)c1`, the IC50 in [1] is 2370 nM.
`COC(=O)c1[nH]c2ccc(OC)cc2c1Nc1cc(OC)c(OC)c(OC)c1`: the IC50 in [1], in test [4] and in test [5] was 110 nM in each case.
On to `COc1cc(C(=O)c2cccc3[nH]ccc23)cc([Se]C)c1OC`, for which the IC50 in test [6] came out at 0.004 µM; in test [5], 4 nM; in test [2] it was 4 nM; in [7], 4 nM; in test [8], 4 nM; in test [3], 4 nM.
Consider `CC(=O)c1ccc(C2=C(c3c(C)[nH]c4ccccc34)C(=O)N(C)C2=O)cc1`, for which the IC50 in [9] was determined as 1310 nM; in test [10], 8.48 µM; in test [3] it was 4970 nM.
Consider `N#Cc1c(-c2ccc(F)cc2Cl)cc(-c2c[nH]c3ccccc23)n2ccnc12`, for which the IC50 in [4] amounted to 20 nM; in test [11], 50 nM; in [12], 140 nM; in [3] it was 570 nM.
Consider `O=C(O)c1cccc(-n2cc(CSc3c[nH]c4ccccc34)nn2)c1`, for which the IC50 in test [1] turned out to be 3520 nM.
Take `O=C(N/N=C/c1c[nH]c2ccccc12)c1c[nH]c2ccccc12`: the IC50 in [1] is 5250 nM; in [6], 8 µM; in test [5] it was 1500 nM; in [2], 29700 nM; in test [13], 24.7 µM.
Regarding `COc1cc(C2=CN(C(N)=O)C(c3cn(C)c4ccc(Br)cc34)C2)cc(OC)c1OC` (stereo unspecified), the IC50 was determined as 290 nM in [1], 210 nM in test [5], 310 nM in test [2] and 260 nM in test [3].
`O=C(CC(c1ccc(F)cc1)c1c(-c2ccccc2)[nH]c2ccccc12)c1ccccc1` (stereo unspecified): the values for the IC50 in [1] and in test [14] were 10000 nM and 10 µM, respectively.
As for `N#Cc1ccc(/C=N/NC(=O)c2[nH]c3ccc(Cl)cc3c2-c2ccccc2)cc1`, the IC50 in test [1] came to 170 nM.
With `COc1cc(CSc2nnc(-c3cn(C)c4ccccc34)n2-c2ccccc2)cc(OC)c1OC`, the IC50 in test [1] came to 380 nM; in test [5], 150 nM; in test [2], 300 nM; in test [3], 300 nM.
Take `O=C(CC(c1ccccc1)c1c(-c2ccccc2)[nH]c2ccccc12)c1ccc(F)cc1` (stereo unspecified): the IC50 in [1] was 10000 nM; in test [14] it was 10 µM.
`COc1ccc(-n2ccc3cc(OC)c(OC)c(OC)c32)cc1O`: the IC50 worked out at 10.2 nM in test [4], 13.7 nM in test [15], 12.9 nM in [11] and 11.1 nM in [12].
For `COC(=O)c1[nH]c2cc(OC)ccc2c1/C=C/C(=O)c1cc(OC)c(OC)c(OC)c1`, the IC50 came to 170 nM in test [1], 160 nM in test [4] and 370 nM in test [5].
For `O=C1Nc2cc(Cl)ccc2/C1=C\c1c(-c2ccc(F)cc2)nc2ccccn12`, the values for the GI50 in test [1] and in test [6] were 430 nM and 950 nM, respectively.
Turning to `O=C(CC#Cc1ccccc1)Oc1ccc2[nH]ccc2c1`, the IC50 came to 3800 nM in test [1], 9.9 µM in test [6], 3200 nM in test [5] and 10.1 µM in [16].
Take `COc1ccc(C(=O)/C=C/c2ccc3c(ccn3C)c2)c2ccccc12`: the IC50 was found to be 820 nM in test [1], 650 nM in test [2] and 1130 nM in test [8].
For `O=C(N/N=C/c1ccc(C(F)(F)F)cc1)c1[nH]c2ccc(Cl)cc2c1-c1ccccc1`, the IC50 in [1] was found to be 420 nM.
In the case of `COc1ccc(S(=O)(=O)Nc2cccc3cc(-c4ccccc4)[nH]c23)cc1`, the IC50 in [4] amounted to 130 nM; in test [5], 200 nM; in test [17] it was 110 nM; in [18], 450 nM; in test [19] it was 250 nM; in test [20] it was 150 nM. Also, the IC50 in test [3] turned out to be 1430 nM.
`COc1ccc(C(=O)/C=C/c2cn(C)c3ccc(C(=O)c4cc(OC)c(OC)c(OC)c4)cc23)cc1OC`: in [21], the GI50 came out at 960 nM.
As for `COc1cc(/C=N/NC(=O)c2cn(Cc3ccccc3)c3ccccc23)cc(OC)c1OC`, the IC50 in test [1] came out at 640 nM; in [2] it was 630 nM; in [22], 35.6 µM; in test [3], 80 nM.
